Experimental data: patent US9757375B2, “Compounds that inhibit human DNA ligases and methods of treating cancer” (University of Maryland, Baltimore, priority 2007, dated 2017)

How the values were obtained:
HeLa cell extract = experiment: Cell extract assay with 5′-flap substrate (DNA replication and long patch base excision repair); type: biochemical, human; details: for Cell Extract 100 (μM): BER inhibited: kind of BER not given; for final ligation step of the flap substrate repair reaction / flap removal by FEN-1: HeLa extract, 100 μmol/L (also 25 μM in the source), FIG. 4A
Method: Extracts were prepared from human cervical cancer HeLa cells as described previously (27, 31). For base excision repair (BER) assays, the extraction buffer contained 100 mmol/L of KCl, whereas for nonhomologous end-joining (NHEJ) assays, extraction buffer contained 400 mmol/L of KCl. Where indicated, DNA ligases were immunodepleted from the extracts as described (32) using protein A or G Sepharose beads (GE Healthcare) and anti-Lig1, anti-LigIII (GeneTex), or anti-LigIV (ABCAM) antibodies. Depletion was confirmed by immunoblotting.
A labeled 5′-flap substrate (0.1 pmol; (31)) was incubated with 20 μg of extract in the absence or presence of ligase inhibitors (100 μmol/L) at 25° C. for 5 min in ligation buffer (final volume, 50 μL). For short patch BER, a linear duplex containing a single uracil residue was preincised by treatment with uracil DNA glycosylase and APE1 (both from NEB) to generate a strand break with 3′ hydroxyl and 5′ deoxyribose phosphate termini. Reactions (50 μL) containing 0.3 pmol of the incised DNA substrate, 10 μCi of [α^32P]dTTP, and 20 μg of extract either in the absence or presence of ligase inhibitors (100 μmol/L) were incubated at 25° C. for 2 min in ligation buffer. After separation by denaturing polyacrylamide gel electrophoresis, labeled oligonucleotides were detected in the dried gel by phosphorImager analysis (Molecular Dynamics).
Next we used published cell extract assays (16,27,28) that measure different DNA replication and repair transactions to confirm the specificity of the DNA ligase inhibitors. FIG. 4A, the flap substrate (0.1 pmol) was incubated with cell extract (20 μg) in the absence (lane 2, Mock) or presence of 100 μmol/L, of L189 (lane 3), L67 (lane 4), or L82 (lane 5). hLigI (lane 6, I-dp) and hLigIIIa (lane 7, III-dp) were immunodepleted from the cell extracts prior to incubation with the DNA substrate. Lane 1, DNA substrate alone (Sub). The positions of the DNA substrate (24-mer), cleaved product (18-mer), and fully repaired product (43-mer). The flap substrate shown in FIG. 4A corresponds to an intermediate generated on the lagging strand during DNA replication and in the long patch subpathway of base excision repair. Previously it has been shown that DNA ligase I completes these two DNA transactions after removal of the flap by FEN-1 (16,28). A cell extract from the human cervical cancer cell line HeLa was incubated with the indicated labeled flap substrate that mimics a common intermediate in DNA replication and long patch base excision repair in the absence or presence of Compounds 67, 82, 184 and 189 (25 μM). After separation by denaturing gel electrophoresis, labeled fragments corresponding to the DNA substrate, cleaved product and fully repaired product were detected by phosphorimaging (28).

MCF10A cells = experiment: Colony forming (survival) assay; type: cell-based, human; details: colonies after two weeks; for effect on MMS cytotoxicity: MMS 50 μM
Method: (§1) For survival assays, cells were plated in 6 well plates and grown either in the absence or presence of ligase inhibitors. Where indicated, either MMS (0-50 μM) was added to the medium or the cells were irradiated in a Cs-137 irradiator (0-2.5 Gy). After two weeks, colonies were stained with crystal violet (Sigma) and then counted.
(§2) To confirm that the DNA ligase inhibitors directly kill cells and potentiate cell killing by DNA damaging agents, we performed colony forming assays.
(§3) Different concentrations of Compound 184 were added to asynchronous subconfluent populations of HCT116, MCF7 and MCF10A cells. Colonies were counted after two weeks. (FIG. 6A).
(§4) Different concentrations of Compound 151 were added to asynchronous subconfluent populations of HCT116 and MCF10A cells in the absence or presence of MMS (50 μM). Colonies were counted after two weeks. (FIG. 6B).
(§5) Different concentrations of Compound 189 were added to asynchronous subconfluent populations of HCT116 and MCF10A cells. After 1 hour, cultures were irradiated with 2 gray of ionizing radiation. Colonies were counted after two weeks. (FIG. 6C).
(§6) Different concentrations of Compound 67 were added to asynchronous subconfluent populations of HCT116, MCF7 and MCF10A cells. After 1 hour, cultures were irradiated with 2 gray of ionizing radiation. Different concentrations of Compound 67 were added to asynchronous subconfluent populations of HCT116 and MCF10A cells in the absence or presence of MMS (50 μM). Colonies were counted after two weeks. (FIG. 6D).

HCT116 cells [1] = experiment: Colony forming (survival) assay; type: cell-based, human; details: for potentiation of killing by ionizing radiation: HCT116, 2 gray
Method: as §1, §2, §3, §4, §5, §6

[2] = system: Human DNA ligases I, III and IV and T4 DNA ligase; experiment: Step 3 of the ligation reaction: ligation of preadenylated nick by non-adenylated ligase; type: biochemical; details: for Mechanism: ligation step inhibited (3rd step): Table 5A
Method: To analyze step 3 of the ligation reaction, an adenylated labeled version of the 18-mer was prepared as described (24). The DNA substrate containing a preadenylated nick (0.5 pmol) and hLigI (0.05 pmol), hLigIIIβ (0.05 pmol), hLigIV/XRCC4 (0.1 pmol), or T4 DNA ligase (0.05 pmol) were incubated in ligation buffer without ATP, either in the presence or absence of the ligase inhibitors (100 μmol/L). Reactions were stopped by the addition of an equal volume of gel loading dye (95% formamide, 0.05% bromophenol blue, and 0.05% xylene cyanol). After heating at 95° C. for 5 min, DNA was separated by denaturing polyacrylamide gel electrophoresis. Labeled oligonucleotides were detected and quantitated in the dried gel by phosphorImager analysis (Molecular Dynamics).
Since the final two steps of the ligation reaction involve interactions with DNA, we examined the effects of the ligase inhibitors on the second (FIG. 3B) (The labeled ligase-adenylate form of human DNA ligases I, III and IV and T4 DNA ligase were incubated with a linear DNA substrate containing a single non-ligatable nick in the absence or presence of compounds 67, 82 and 189 (100 μM). After separation by denaturing gel electrophoresis, the labeled DNA-AMP complex was detected by phosphorimaging (26)) and third steps (FIG. 3C) of the ligation reaction using established assays (25,26) (Non-adenylated human DNA ligases I, III and IV and T4 DNA ligase were incubated with labeled DNA-AMP in the absence or presence of compounds 67, 82 and 189 (100 μM). After separation by denaturing gel electrophoresis, labeled ligated DNA was detected by phosphorimaging (25)).

HCT116 cells [3] = experiment: Screen for potentiation of DNA damaging agents (MMS, camptothecin, cis-platinum, 3 aminobenzamide, ionizing radiation); type: cell-based, human; details: with 2 Gy ionizing radiation, tick mark only

| SMILES | Cell Extract 100 (μM): BER inhibited (HeLa cell extract) | final ligation step of the flap substrate repair reaction (HeLa cell extract) | flap removal by FEN-1 (HeLa cell extract) | effect on MMS cytotoxicity (MCF10A cells) | Mechanism: ligation step inhibited (3rd step) [2] [rd step] | % growth inhibition HCT116 [2 Gy] 5-15 uM (HCT116 cells [3]) | further results |
| --- | --- | --- | --- | --- | --- | --- | --- |
| Cc1c(Br)cc(NCC(=O)N/N=C\c2cc([N+](=O)[O-])ccc2O)cc1Br [Compound 67] | BER | inhibited the final ligation step of the repair reaction | had no effect on flap removal by FEN-1 | no significant effect | 3 | – | effect on ionizing radiation-induced cytotoxicity (MCF10A cells; 2 gray): no significant effect; potentiation of killing by ionizing radiation (HCT116 cells [1]; colonies after two weeks): potentiates |
| O=c1[nH]ncc(N/N=C\c2ccc(O)c([N+](=O)[O-])c2)c1Cl [Compound 82] | BER | inhibited the final ligation step of the repair reaction | had no effect on flap removal by FEN-1 | – | 3 | – | inhibition of step 3 of the ligation reaction ([2]; 100 μM, FIG. 3C): inhibit step 3 |
| O=C(Cn1cnc([N+](=O)[O-])n1)N/N=C/c1ccc(O)cc1O [Compound 151] | BER | – | – | no significant effect | – | ✓ | potentiation of killing by MMS (HCT116 cells [1]; HCT116, MMS 50 μM, colonies after two weeks): markedly potentiates |
| CS(=O)(=O)NNC(=O)C(=O)NNc1ccccc1 [Compound 184] | – | – | – | – | – | ✓ | cell killing (colony formation) (MCF10A cells; compound alone, FIG. 6A): kills; cell killing (colony formation) (HCT116 cells [1]; HCT116, compound alone, compared with MCF10A, FIG. 6A): more effective at killing |
| Nc1nc(S)nc(O)c1/N=C/c1ccccc1 [Compound 189] | BER | inhibited the final ligation step of the repair reaction | had no effect on flap removal by FEN-1 | no significant effect | 3 | – | potentiation of killing by ionizing radiation (HCT116 cells [1]; colonies after two weeks): markedly potentiates |
| Cc1oc(C(=O)O)cc1CSCc1cc(C(=O)O)c(C)o1 [Compound 197] | – | – | – | – | 3 | – | – |
| O=C(c1ccc(O)cc1)c1ccccc1O [Compound 200] | – | – | – | – | – | ✓ | – |
